This assay concerns the target T1, Xanthine Oxidase (Bos taurus, UniProt P80457).
T1 construct: Xanthine Oxidase was obtained from Bovine butter milk; from tissue; host or cells: bovine buttermilk
Kind of assay: Xanthine oxidase inhibition assay (uric acid quantitated by spectrophotometer, 165 μM xanthine substrate). It counts as biochemical, Bovine. Particulars: Allopurinol comparison; concentration not given. The source says:
All other results are expressed in terms of that assay's quantitation method. For primary assays, only the lowest concentration with a significant response judged by the assays' criteria, is shown in this summary.
Methods employed in this study were adapted from the scientific literature to maximize reliability and reproducibility.

T1 sequence (P80457 whole entry): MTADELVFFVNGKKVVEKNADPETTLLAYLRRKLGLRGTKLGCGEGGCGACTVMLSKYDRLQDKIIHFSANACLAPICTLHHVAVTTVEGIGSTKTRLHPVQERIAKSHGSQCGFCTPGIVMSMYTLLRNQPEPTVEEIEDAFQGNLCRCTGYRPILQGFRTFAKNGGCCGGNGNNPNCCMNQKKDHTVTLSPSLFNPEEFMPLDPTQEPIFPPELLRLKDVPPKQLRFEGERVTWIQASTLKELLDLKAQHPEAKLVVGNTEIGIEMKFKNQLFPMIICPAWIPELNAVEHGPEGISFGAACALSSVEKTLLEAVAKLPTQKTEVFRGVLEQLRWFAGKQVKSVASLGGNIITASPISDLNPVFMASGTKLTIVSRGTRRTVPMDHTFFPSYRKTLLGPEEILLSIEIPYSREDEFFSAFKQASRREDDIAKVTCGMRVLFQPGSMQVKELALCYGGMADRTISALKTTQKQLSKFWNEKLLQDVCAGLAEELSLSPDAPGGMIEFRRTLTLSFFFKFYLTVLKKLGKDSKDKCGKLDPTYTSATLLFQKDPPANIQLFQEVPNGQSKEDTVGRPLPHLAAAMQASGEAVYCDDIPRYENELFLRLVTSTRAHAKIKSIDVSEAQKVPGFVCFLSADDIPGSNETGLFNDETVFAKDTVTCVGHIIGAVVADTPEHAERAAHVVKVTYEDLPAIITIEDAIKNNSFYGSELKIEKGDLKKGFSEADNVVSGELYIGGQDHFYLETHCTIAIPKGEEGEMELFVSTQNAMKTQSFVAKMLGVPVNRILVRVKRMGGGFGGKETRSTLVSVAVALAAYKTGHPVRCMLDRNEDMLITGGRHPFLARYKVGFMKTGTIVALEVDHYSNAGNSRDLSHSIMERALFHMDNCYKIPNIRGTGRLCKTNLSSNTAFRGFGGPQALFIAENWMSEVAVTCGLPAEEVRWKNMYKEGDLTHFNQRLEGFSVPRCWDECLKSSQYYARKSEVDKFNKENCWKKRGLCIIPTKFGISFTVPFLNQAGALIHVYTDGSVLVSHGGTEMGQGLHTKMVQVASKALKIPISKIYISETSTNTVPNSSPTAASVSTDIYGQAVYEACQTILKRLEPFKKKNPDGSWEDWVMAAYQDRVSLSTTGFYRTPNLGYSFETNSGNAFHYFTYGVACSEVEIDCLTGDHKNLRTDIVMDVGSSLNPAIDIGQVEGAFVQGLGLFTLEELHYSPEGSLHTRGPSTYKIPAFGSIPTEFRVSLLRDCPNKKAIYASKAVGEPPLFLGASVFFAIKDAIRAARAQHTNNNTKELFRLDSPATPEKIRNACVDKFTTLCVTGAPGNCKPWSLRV

Take `Oc1ncnc2[nH]ncc12` [Allopurinol]: the “percent inhibition of xanthine oxidase” value is “approximately 90%”.
